Reference: patent publication US12338243B2, “P2X7 modulators” (JANSSEN PHARMACEUTICA NV, priority 2014, dated 2025)

Tests used:
P2X7 [1] = target: T1, P2X7 (Homo sapiens, UniProt Q99572); test: Ca2+ flux (FLIPR) in 1321N1 cells expressing recombinant human P2X7 channel; type: cell-based; set-up: expressed in transfected cells; host or cells: 1321N1 cells; details: 250 μM BzATP
T1 sequence (Q99572 1-595): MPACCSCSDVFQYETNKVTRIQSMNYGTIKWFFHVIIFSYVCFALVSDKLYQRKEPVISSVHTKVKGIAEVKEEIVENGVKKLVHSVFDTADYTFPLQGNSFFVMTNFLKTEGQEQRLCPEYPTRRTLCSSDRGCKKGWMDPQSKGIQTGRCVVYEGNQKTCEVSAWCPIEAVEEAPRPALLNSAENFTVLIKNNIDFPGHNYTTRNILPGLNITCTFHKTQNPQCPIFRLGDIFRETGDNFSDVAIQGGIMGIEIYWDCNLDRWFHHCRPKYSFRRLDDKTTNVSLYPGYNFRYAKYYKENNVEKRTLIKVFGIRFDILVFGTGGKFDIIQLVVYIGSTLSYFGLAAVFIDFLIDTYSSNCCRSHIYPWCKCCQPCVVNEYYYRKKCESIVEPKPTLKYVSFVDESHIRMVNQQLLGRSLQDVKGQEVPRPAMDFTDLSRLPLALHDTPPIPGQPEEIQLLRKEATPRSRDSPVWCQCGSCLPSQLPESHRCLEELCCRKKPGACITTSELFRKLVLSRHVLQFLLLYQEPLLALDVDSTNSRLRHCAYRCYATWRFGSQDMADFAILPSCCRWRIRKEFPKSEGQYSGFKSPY
How it was run: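 1321N1 cells expressing recombinant human P2X7, loaded 60 min with Calcium-4 dye in HEPES buffer pH 7.40 (1 mM CaCl2, 1 mM MgCl2), preincubated 30 min with compounds. Fluorescence change recorded 180 seconds after agonist addition.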

rat P2X7 [2] = target: T2, rat P2X7 (Rattus norvegicus, UniProt Q64663); test: Radioligand binding, rat P2X7-1321N1 cell membranes, tritiated A-804598
T2 sequence (Q64663 1-595): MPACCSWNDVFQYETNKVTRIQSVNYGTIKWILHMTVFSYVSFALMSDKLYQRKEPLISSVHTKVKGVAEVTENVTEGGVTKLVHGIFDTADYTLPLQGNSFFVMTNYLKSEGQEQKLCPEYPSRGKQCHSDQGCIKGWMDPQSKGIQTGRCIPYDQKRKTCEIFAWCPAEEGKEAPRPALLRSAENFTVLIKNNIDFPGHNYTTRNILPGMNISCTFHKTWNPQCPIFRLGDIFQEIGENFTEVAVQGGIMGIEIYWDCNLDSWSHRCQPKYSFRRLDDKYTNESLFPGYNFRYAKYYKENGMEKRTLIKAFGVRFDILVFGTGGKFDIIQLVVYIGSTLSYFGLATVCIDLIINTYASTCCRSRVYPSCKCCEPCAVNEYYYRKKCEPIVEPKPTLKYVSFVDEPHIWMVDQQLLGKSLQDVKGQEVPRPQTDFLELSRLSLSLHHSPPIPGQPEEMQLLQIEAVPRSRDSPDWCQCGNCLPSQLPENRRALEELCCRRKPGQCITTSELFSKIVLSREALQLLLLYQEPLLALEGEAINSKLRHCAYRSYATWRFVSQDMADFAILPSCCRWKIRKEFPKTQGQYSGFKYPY
Source text: (§3) P2X7 Antagonism in Recombinant Human P2X7 Cells or Recombinant Rat P2X7 Cells: (a) Ca^2+ Flux and (b) Radioligand Binding

P2X7 [3] = target: T1, P2X7; test: Radioligand binding, human P2X7-1321N1 cell membranes, tritiated A-804598
Source text: as §3

rat P2X7 [4] = target: T2, rat P2X7; test: Ca2+ flux (FLIPR) in 1321N1 cells expressing recombinant rat P2X7 channel; details: FLIPR (rat) IC50 (μM), 250 μM BzATP
P2X7 [5] = target: T1, P2X7; test: P2X7 antagonism in human whole blood (IL-1β release, ELISA); type: cell-based; set-up: PBMCs were isolated from blood using a Ficoll density gradient technique; endogenous in cells; host or cells: human PBMCs / human whole blood from donors; details: LPS 30 ng/ml + 1 mM Bz-ATP
Procedure: (§1) P2X7 Antagonism in Human Peripheral Blood Mononuclear Cells (PBMCs) and Human Whole Blood.
(§2) Human blood was collected using a blood donor program. PBMCs were isolated from blood using a Ficoll density gradient technique. Briefly, blood was laid on Ficoll solution and centrifuged at RT for 20 minutes at 2000 rpm. The buffy layer (between red blood cells and plasma) was carefully collected by aspiration, washed with PBS and centrifuged again at 1500 rpm for 15 minutes. The resulting cell pellet was washed and plated on 96 well-plates for experiments. For the Human Whole Blood experiments, 150 μl of human blood was platted on 96 well-plates. Lipopolysaccharide (LPS) (30 ng/ml) was added to each well and incubated for 1 hour. Test compounds were then added and incubated for 30 minutes. The P2X7 agonist, 2′(3′)-O-(4-benzoylbenzoyl) adenosine 5′ triphosphate (Bz-ATP) was then added at a final concentration of 0.5 mM (PBMC) or 1 mM (blood). Cells were incubated for an additional 1.5 hours. At that point, supernatant was collected and stored for IL-1β assay using manufacturer's protocol for enzyme-linked immunosorbent assay (ELISA). Data was expressed as percent control, where control is defined as the difference in IL-1β release in LPS+Bz-ATP samples and LPS only samples. Data was plotted as response (% control) versus concentration to generate IC50 values. […] Data are analyzed and graphed on Graphpad Prism 5. For analysis, each concentration point is averaged from triplicate values and the averaged values are plotted on Graphpad Prism. The IC50 for each compound is then uploaded into 3DX.

P2X7 [6] = target: T1, P2X7; test: P2X7 antagonism in human PBMCs (IL-1β release, ELISA); type: cell-based; set-up: PBMCs were isolated from blood using a Ficoll density gradient technique; endogenous in cells; host or cells: human PBMCs / human whole blood from donors; details: LPS 30 ng/ml + 0.5 mM Bz-ATP, compound 10 μM
Procedure: as §1, §2

Row | IC50 (P2X7 [1]) [nM] | Ki (rat P2X7 [2]) [nM] | Ki (P2X7 [3]) [nM] | IC50 (rat P2X7 [4]) [µM] | IC50 (P2X7 [5]) [nM] | PBMC 10 μM (% control) (P2X7 [6]) | Structure (SMILES)
1 | 2 | 39.8 | 15.8 | 0.0628 | 79 | – | Cc1nnc2n1CCN(C(=O)c1cccc(C(F)(F)F)c1Cl)C2c1ccccc1 (racemic) [Example 53, (2-chloro-3-(trifluoromethyl)phenyl)(3-methyl-8-phenyl-5,6-dihydro-[1,2,4]triazolo[4,3-a]pyrazin-7(8H)-yl)methanone]
2 | 9.7 | – | 31.6 | 0.211 | – | 8.9 | O=C(c1ccc(F)c(C(F)(F)F)c1Cl)N1CCn2c(nnc2C(F)(F)F)C1c1ccccc1 (single isomer, unassigned) [Example 95, (R*)-(2-chloro-4-fluoro-3-(trifluoromethyl)phenyl)(8-phenyl-3-(trifluoromethyl)-5,6-dihydro-[1,2,4]triazolo[4,3-a]pyrazin-7(8H)-yl)methanone]
3 | 4890 | – | – | > 10 | – | 43.6 | O=C(c1ccc(F)c(C(F)(F)F)c1Cl)N1CCn2c(nnc2C(F)(F)F)C1c1ccccc1 (single isomer, unassigned) [Example 96, (S*)-(2-chloro-4-fluoro-3-(trifluoromethyl)phenyl)(8-phenyl-3-(trifluoromethyl)-5,6-dihydro-[1,2,4]triazolo[4,3-a]pyrazin-7(8H)-yl)methanone]
4 | 9.1 | 6.3 | 17.4 | 0.0348 | – | 4.9 | O=C(c1ccnc(C(F)(F)F)c1Cl)N1CCn2c(nnc2C(F)(F)F)C1c1ccccc1 (single isomer, unassigned) [Example 99, (R*)-(3-chloro-2-(trifluoromethyl)pyridin-4-yl)(8-phenyl-3-(trifluoromethyl)-5,6-dihydro-[1,2,4]triazolo[4,3-a]pyrazin-7(8H)-yl)methanone]
5 | – | – | – | – | – | 102.0 | O=C(c1ccnc(C(F)(F)F)c1Cl)N1CCn2c(nnc2C(F)(F)F)C1c1ccccc1 (single isomer, unassigned) [Example 100, (S*)-(3-chloro-2-(trifluoromethyl)pyridin-4-yl)(8-phenyl-3-(trifluoromethyl)-5,6-dihydro-[1,2,4]triazolo[4,3-a]pyrazin-7(8H)-yl)methanone]
6 | 6.8 | – | 21.9 | 0.0047 | 25 | – | C[C@H]1Cn2c(nnc2-c2ccco2)CN1C(=O)c1cccc(C(F)(F)F)c1Cl [Example 24, (S)-(2-chloro-3-(trifluoromethyl)phenyl)(3-(furan-2-yl)-6-methyl-5,6-dihydro-[1,2,4]triazolo[4,3-a]pyrazin-7(8H)-yl)methanone]
7 | 83.8 | – | 50.1 | 0.927 | 1590 | – | C[C@H]1Cn2c(nnc2-c2cc(F)c(F)c(F)c2)CN1C(=O)c1cccc(C(F)(F)F)c1Cl [Example 30, (S)-(2-chloro-3-(trifluoromethyl)phenyl)(6-methyl-3-(3,4,5-trifluorophenyl)-5,6-dihydro-[1,2,4]triazolo[4,3-a]pyrazin-7(8H)-yl)methanone]
